{
  "source": "ChEMBL document CHEMBL3507680",
  "about": "“University of Dundee, Gates Library screen for HepG2 cell viability”",
  "data": [
    {"assay": "Human HepG2 cell viability assay in 384 well format", "assay_type": "toxicity, cell-based", "design": "dose 125 nL, time 70.5 hour; cytotoxicity at 70.5 h: concentration not given beside the values", "settings": "HepG2 cells, read-out: Inhibition", "units": {"cytotoxicity at 70.5 h": "%"}, "values": [
      {"smiles": "Cn1cccc1C1CCCCCN1C(=O)c1ccc(NC2CC2)nc1", "note": "(stereo not given)", "cytotoxicity at 70.5 h": 12.8},
      {"smiles": "CN1[C@H]2CC[C@@H]1CN(C(=O)CCc1csc(N)n1)CC2", "cytotoxicity at 70.5 h": -11.5},
      {"smiles": "COc1cccc(-c2ccc3nc(C4CCN(C(C)=O)CC4)nn3c2)c1", "cytotoxicity at 70.5 h": -4.61},
      {"smiles": "COCC(=O)N[C@H]1C[C@@H](C(=O)NCCc2cccc(Cl)c2)N(C)C1", "cytotoxicity at 70.5 h": -13.3},
      {"smiles": "COCCNC(=O)NC1(c2nc(-c3ccncc3)no2)CCCCC1", "cytotoxicity at 70.5 h": 5.97},
      {"smiles": "COc1cc(N2CCc3ncnc(-c4ccoc4)c3CC2)ncn1", "cytotoxicity at 70.5 h": -7.42},
      {"smiles": "Cc1nc(C)c(C(=O)N2CCc3[nH]nc(COc4ccccc4)c3C2)s1", "cytotoxicity at 70.5 h": -1.76},
      {"smiles": "CN(C)C1CCCN(C(=O)NCCC(C)(C)C)C1", "note": "(stereo not given)", "cytotoxicity at 70.5 h": 16.4},
      {"smiles": "COc1ccc(C(=O)COc2coc(CN3CCSCC3)cc2=O)cc1", "cytotoxicity at 70.5 h": -19.9},
      {"smiles": "O=C(c1cc(Cl)cc2cccnc12)N1CCN(CCO)CC1", "cytotoxicity at 70.5 h": -8.63},
      {"smiles": "Cc1nn(CC(=O)N2CCN(Cc3cnn(C)c3C)CC2)cc1Br", "cytotoxicity at 70.5 h": 29.4},
      {"smiles": "CN(Cc1ncc(-c2ccccc2)o1)C1CCCN(c2cccnn2)C1", "note": "(stereo not given)", "cytotoxicity at 70.5 h": 2.02},
      {"smiles": "O=C(c1ccccc1F)N1CCN(c2ccc(-n3cccn3)nn2)CC1", "cytotoxicity at 70.5 h": 0.31},
      {"smiles": "CC(C)(C)c1cnc(CN2CCC(CO)CC2)o1", "cytotoxicity at 70.5 h": -3.87},
      {"smiles": "CCCn1nnnc1CSc1nccn1Cc1ccccn1", "cytotoxicity at 70.5 h": -13.2},
      {"smiles": "CC(C)Oc1ccc(C(=O)NCc2ccc3c(c2)CCCN3C)cn1", "cytotoxicity at 70.5 h": -2.36},
      {"smiles": "Fc1cccc(Cl)c1CN1CCC(c2n[nH]c3ncccc23)CC1", "cytotoxicity at 70.5 h": 13.7},
      {"smiles": "CNCC[C@H]1CC(C)(C)Oc2ccc(OCC3CC3)cc21", "cytotoxicity at 70.5 h": 7.09},
      {"smiles": "O=c1cc2c(nn1CN1CCN(c3ccccc3)CC1)CCCC2", "cytotoxicity at 70.5 h": -15},
      {"smiles": "CC(C)(C)OC(=O)N1CCC(NC2CCS(=O)(=O)C2)CC1", "note": "(stereo not given)", "cytotoxicity at 70.5 h": -8.07},
      {"smiles": "COc1cc(CNC2CCc3nc(C(C)C)nn3C2)cc2c1OCO2", "note": "(stereo not given)", "cytotoxicity at 70.5 h": -13.1},
      {"smiles": "CCNc1ncc(CN2C[C@@H](C(=O)O)[C@H](C3CC3)C2)cn1", "cytotoxicity at 70.5 h": -7.25},
      {"smiles": "CSCC[C@@H](CO)n1ccnc1-c1ccncc1", "cytotoxicity at 70.5 h": -10.3},
      {"smiles": "COCC(=O)N1CCCC2(CCN(c3ccccc3)C2=O)C1", "note": "(stereo not given)", "cytotoxicity at 70.5 h": -13.1},
      {"smiles": "c1cnc(N2CCc3onc(CN4CCCC4)c3C2)cn1", "cytotoxicity at 70.5 h": 6.11},
      {"smiles": "Cc1ccc(NC(=O)C2CSCN2C(=O)c2cc[nH]n2)c(C)c1", "note": "(stereo not given)", "cytotoxicity at 70.5 h": -2.12},
      {"smiles": "CCNc1ccnc(N2CCN(Cc3ncccc3C)CC2)n1", "cytotoxicity at 70.5 h": 3.6},
      {"smiles": "O=C(COCC(F)(F)F)Nc1nncs1", "cytotoxicity at 70.5 h": 10.8},
      {"smiles": "O=C(Cn1nc2c(cc1=O)CSCC2)NC(Cc1ccccc1)C(=O)O", "note": "(stereo not given)", "cytotoxicity at 70.5 h": 23},
      {"smiles": "Cc1nnc2n1CCN(CC(=O)Nc1cc(C(C)C)no1)C2", "cytotoxicity at 70.5 h": -8.51},
      {"smiles": "CCc1cc(C(=O)N2Cc3ccccc3OC3(CCOCC3)C2)on1", "cytotoxicity at 70.5 h": 8.33},
      {"smiles": "c1ncn(CC2CN(Cc3noc(C4CC4)n3)CCO2)n1", "note": "(stereo not given)", "cytotoxicity at 70.5 h": 29.1},
      {"smiles": "Cn1cccc1CN(C(=O)Cc1cccs1)C1CC1", "cytotoxicity at 70.5 h": -2.78},
      {"smiles": "CCn1cnnc1CCNC(=O)c1ccc(F)c(Br)c1", "cytotoxicity at 70.5 h": -12.1},
      {"smiles": "CC(C)Nc1ncnc2c1CCN(C(=O)[C@H]1CCCO1)CC2", "cytotoxicity at 70.5 h": -6.46},
      {"smiles": "Cc1cccc(N2CC(c3nnc(N)s3)CC2=O)c1", "note": "(stereo not given)", "cytotoxicity at 70.5 h": -13.7},
      {"smiles": "Cc1ncsc1CN1C[C@H](C(=O)NCC2CC2)[C@@H]2CCO[C@@H]2C1", "cytotoxicity at 70.5 h": -7.28},
      {"smiles": "COc1ncnc2c1CCN(CC1CCOC1)CC2", "note": "(stereo not given)", "cytotoxicity at 70.5 h": -13.6},
      {"smiles": "O=C(NCCNc1ncccn1)N1CCN(c2nccs2)CC1", "cytotoxicity at 70.5 h": -2.7},
      {"smiles": "CN(CC(O)C1CC1)C(=O)c1ccc(-c2nc(C3CC3)no2)cc1", "note": "(stereo not given)", "cytotoxicity at 70.5 h": 2.53},
      {"smiles": "CC(C)COc1cccc(-c2nc3c([nH]2)CCNC3)c1", "cytotoxicity at 70.5 h": 3.41},
      {"smiles": "COCCN(Cc1ccco1)Cc1nc(-c2ccccc2C)no1", "cytotoxicity at 70.5 h": 1.45},
      {"smiles": "O=C(Nc1ccc2scnc2c1)N1CCN([C@H]2CCCC[C@@H]2O)CC1", "cytotoxicity at 70.5 h": -13.6},
      {"smiles": "Cn1cc(CN2CCC(F)(F)C3(CCN(c4cccnc4)C3)C2)cn1", "note": "(stereo not given)", "cytotoxicity at 70.5 h": -9.49},
      {"smiles": "O=C(CC1CCCC1)N1CCn2cc(Cn3cccn3)nc2C1", "cytotoxicity at 70.5 h": -11.5}
    ]}
  ]
}
